The source of these data is patent US12576135B2, “Compositions and methods for anti-TnMUC1 gold CAR t-cells” (Chimera Bioengineering, Inc., priority 2021, dated 2026).

SMILES strings stand for the structures. pIC50: −log10 of the molar value.

One experiment addresses mTORC1 (Homo sapiens, UniProt P42345).
Experiment: not given
Conditions: cited from earlier work.
The term pIC50 denotes −log10 of the IC50, conventionally taken in molar units. Take `CO[C@H]1C[C@@H]2CC[C@@H](C)[C@@](O)(O2)C(=O)C(=O)N2CCCC[C@H]2C(=O)O[C@H]([C@H](C)C[C@@H]2CC[C@@H](OCCO)[C@H](OC)C2)CC(=O)[C@H](C)/C=C(\C)[C@@H](O)[C@@H](OC)C(=O)[C@H](C)C[C@H](C)/C=C/C=C/C=C/1C` [Everolimus]: the pIC50 is 8.59 to 8.74.

For `CNC(=O)Nc1ccc(-c2nc(N3CC4CCC(C3)O4)c3cnn(C4CCC5(CC4)OCCO5)c3n2)cc1` [WYE-125132], the pIC50 was 9.72.

A further experiment concerns PI3K.
Experiment: not given
Particulars: cited from earlier work.
With `COc1ccc(-c2ccc3c(N4CCOC[C@@H]4C)nc(N4CCOC[C@@H]4C)nc3n2)cc1CO` [AZD8055], the pIC50 was 5.44.

As to `COc1ccc(-c2ccc3c(N4CCOCC4)nc(N4C[C@@H](C)O[C@@H](C)C4)nc3n2)cc1CO` [KU-0063794], the pIC50 was less than 5.00.

Take `Cn1c(=O)n(-c2ccc(C(C)(C)C#N)cc2)c2c3cc(-c4cnc5ccccc5c4)ccc3ncc21` [NVP-BEZ235]: the pIC50 is […].

As to `CC(C)n1nc(-c2cccc(C(=O)NC3=NCCS3)c2)c2c(N)ncnc21` [PP30], the pIC50 was […].

`CCC(=O)N1CCN(c2ccc(-n3c(=O)ccc4cnc5ccc(-c6cnc7ccccc7c6)cc5c43)cc2C(F)(F)F)CC1` [Torin 1]: the negative-log IC50 (pIC50) was 6.60.

`Nc1ccc(-c2ccc3ncc4ccc(=O)n(-c5cccc(C(F)(F)F)c5)c4c3c2)cn1` [Torin 2]: the pIC50 is 8.33.

Turning to `CNC(=O)Nc1ccc(-c2nc(N3CC4CCC(C3)O4)c3cnn(C4CCC5(CC4)OCCO5)c3n2)cc1` [WYE-125132], the pIC50 is 5.93.

A further experiment relates to primary T-cells. Description: Rapamycin inhibition of Gold controlled nano-luciferase in anti-DLL3 CAR primary T-cells mixed with SHP-77 cells. Format: cell-based. Conditions: Concurrent Rx and Delay Rx; 24, 48, 72 hours. The source says:
A bicistronic vector with an anti-DLL3-CAR and nano-luceiferase under the control of an IFNg Gold element is made using the methods and materials described above. This bicistronic vector is transduced into primary T-cells, and transduced T-cells are obtained. When the transduced T-cells are mixed with SHP-77 cells that display the DLL3 antigen, the primary T-cells are activated and nano-luciferase is expressed.
The ability of rapamycin to inhibit the expression of nano-luciferase following activation of the primary T-cells was tested. Primary T-cells transduced with the bicistronic vector encoding the anti-DLL3 CAR and nano-luciferase were mixed with SHP-77 cells and then three treatment regimens were used. No rapamycin (NoRx), rapamycin added concurrently with the SHP-77 cells (Concurrent Rx), or rapamycin added 24 hours after SHP-77 cells was added (Delay Rx). New media was mixed with the cells every 24 hours. If the cells had received rapamycin in the media in the earlier time period, rapamycin was included with the media at subsequent media changes.
FIG. 22 normalizes the nano-luciferase activity to that of the NoRx sample. Levels of nano-luciferase were measured at 24 hours, 48 hours and 72 hours post mixing with SHP-77 cells.
With `CO[C@H]1C[C@@H]2CC[C@@H](C)[C@@](O)(O2)C(=O)C(=O)N2CCCC[C@H]2C(=O)O[C@H]([C@H](C)C[C@@H]2CC[C@@H](O)[C@H](OC)C2)CC(=O)[C@H](C)/C=C(\C)[C@@H](O)[C@@H](OC)C(=O)[C@H](C)C[C@H](C)/C=C/C=C/C=C/1C` [Rapamycin/sirolimus], the “expression of nano-luciferase normalized to NoRx” value was “reduced expression of nano-luciferase”.
